Structures can show the parent of a compound that is named as a salt. Where two headings read alike, the source gives them in different places.
What was measured:
CoA-IT = test: Assay (b): microsomal CoA-IT activity assay; assay type: biochemical, human; conditions: U937 microsomes
Source text: The following is a method to measure CoA-IT activity and the effects of compounds on CoA-IT activity. The assay is based upon mixing cellular material containing CoA-IT activity with a stable lyso phospholipid such as […] and measuring the production of phospholipid product such as […] occurring in the absence of added CoA or CoA-fatty acids.
Any inflammatory cell that contains high levels of CoA-IT activity can be used, such as neutrophils, macrophages or cell lines such as U937 cells. […] Cells were grown without differentiation (basal state) by any agent, such as dimethyl sulfoxide. As used herein, "inflammatory cells" include, but are not limited to neutrophils, macrophages, monocytes, lymphocytes, eosinophils, basophils, and mast cells.
Microsomes were prepared using standard techniques. In this case, cells were washed with a buffer of 250 mM sucrose, 10 mM Tris, 1 mM EGTA, 1 mM MgCl2, pH 7.4 and ruptured by N2 cavitation (750 psi, 10 minutes). The ruptured cells were centrifuged 1000×g, 5 minutes. The resulting supernatant was centrifuged at 20,000×g,~20 minutes. Microsomes were prepared from this supernatant by centrifugation at 100,000×g, 60 minutes. The resulting pellet was washed once with assay buffer (150 mM NaCl, 10 mM Na2 KPO4, 1 mM EGTA, pH 7.4), recentrifuged and the pellet resuspended in assay buffer (4-20 mg protein/ml) and was stored at -80° C. until assayed.
CoA-IT activity was measured in 1.5 ml centrifuge tubes in a total volume of 100 ul. Microsomes were diluted in assay buffer to the desired protein concentration (6-20 ug/tube). The reaction was initiated by addition of [3H ]1-alkyl-2-lyso-sn-glycero-3-phosphocholine (GPC) (~0.1 uCi/tube) and 1 μM final cold 1-alkyl-2-lyso-GPC in assay buffer with 0.25 mg/ml fatty acid-poor bovine serumalbumin (BSA) (Calbiochem, La Jolla, Calif.). [3H]1-2-alkyl-2-lyso-GPC, approximately 50 Ci/mmol, was from NEN-Dupont (Boston, Mass.) and cold 1-alkyl-2-lyso-GPC was from Biomol (Plymouth Meeting, Pa). Microsomes were pretreated with desired agents for the desired time (10 minutes) before the addition of [3H]1-alkyl-2-lyso-GPC. The reaction was run for the desired time (10 minutes) at 37° C. The reaction was stopped and the lipids extracted by addition of 100 ul of chloroform:methanol (1:2, v/v) followed by 100 ul of chloroform and 100 ul of 1M KCI. The samples were vortexed and centrifuged at high speed in a microfuge for 2-3 minutes. An aliquot of the chloroform-extracted materials were separated, usually by TLC in chloroform/methanol/acetic acid/water (50:25:8:4, v/v), visualized by radioscanning (Bioscan) and the product, [3H] 1-alkyl-2-acyl-GPC, was scraped and quantified by liquid scintillation spectroscopy. […] Other methods can be used to separate substrate from product, including but not limited to column chromatography, affinity chromatography and post reaction derivitization.

[1] = tested on: TPA-induced Mouse Ear Inflammation; test: Assay (g): TPA-induced Mouse Ear Inflammation (edema and MPO); assay type: in vivo; conditions: for MPO ED50 / edema ED50: TPA ear model; for MPO ED50 / edema ED50 / TPA % change in edema / change in MPO for TPA model: topical; for TPA % change in edema / change in MPO for TPA model: doses of 0.2, 0.1 and 0.3 for dexamethasone, scalaradial, WY 50,295 respectively
Method: (§1) Male Balb/c inbred mice were obtained from Charle River Breeding Laboratories (Kingston, N.Y.). Within a single experiment mice (22-25 g) were age-matched. These in vivo experiments typically involved use of 5-6 animals/group.
TPA (12-0-tetradecanoylphorbol 13-acetate) (Sigma Chemical Company) in acetone (4 mg/20 ml) was applied to the inner and outer surfaces of the left ear of BALB/c male mice. The thickness of both ears was then measured with a dial micrometer (Mitutoyo, Japan) at both 2 and 4 hours after treatment, and the data expressed as the change in thickness (10^-3 cm) between treated and untreated ears. […] After measuring the edema, the inflammed left ears were removed and stored at -70° C. until they were assayed for MPO (myeloperoxidase) activity where appropriate.
On the day of the assay, partially thawed ear tissues were minced and then homogenized (10% w/v) with a Tissumizer homogenizer (Tekmar Co.) in 50 mM phosphate buffer (pH 6) containing 0.5% HTAB. The tissue homogenates were taken through three cycles of freeze-thaw, followed by brief sonication (10 sec). The method of Bradley et al. was used with modifications as described. […] Supernatant MPO activity was quantified kinetically (change in absorbance measured over 3 min, sampled at 15-sec intervals) using a Beckman DU-7 spectrophotometer and a Kinetics Analysis package (Beckman Instruments, Inc.). One unit of MPO activity is defined as that degrading one micromole of peroxide per minute at 25° C.
Statistical analysis was done using Student's "t" test.

[2] = tested on: Arachidonic acid induced ear inflammation; test: Assay (h): Arachidonic acid induced ear inflammation assay; assay type: in vivo, mouse; conditions: for activity in the AA ear model: @ 1 mg; for AA % change in edema / change in MPO for AA: topical, doses of 0.2, 0.1 and 0.3 for dexamethasone, scalaradial, WY 50,295 respectively
Method: as §1
Arachidonic acid is dissolved in acetone ([…]) to the left ear of BALB/c male mice. The thickness of both ears was measured with a constant pressure thickness guage 1 hour after treatment and the data expressed as the change in thickness between treated and untreated ears. Test compounds or vehicle are given at the time of AA applciation. The inflammatory cell infiltration is measured by MPO activity as described above in the TPA ear edema assay. After the edema measurements are made, the inflamed ears are removed and assayed for MPO activity.

human Monocytes = test: Assay (f): stimulated eicosanoid release by human monocytes; assay type: cell-based; conditions: Monocyte
Method: Human Monocyte Isolation. Leukocyte-rich leukopaks obtained from Biological Specialties (Lansdale, Pa.) were collected from male volunteers who were not talking antiinflammatory drugs. Leukopaks were centrifuged (90×g for 15 min) twice to remove the platelet-rich plasma. The cell pellet was washed by centrifugation and resuspended in HBSS without Ca^2+ or Mg^2+. Histopaque 1077 was layered under the cell suspension and centrifuged at 400×g for 30 min to obtain the buffy coat. The interfacial buffy coat, containing monocytes and lymphocytes, was removed and saved. The buffy coat was washed twice with HBSS without Ca^2+ or Mg^2+ by centrifugation. […]
Measurement of Stimuli-Induced Eicosanoid Release. […] (A23187, 1 μM,(15 min). The reaction was terminated by reduction of pH through addition of citric acid and centrifugation (10 min, 400×g, 4° C.). Cell viability was monitored before and after experiments using trypan blue exclusion. The cell-free media was decanted and stored at -70° C. until analyzed. Prostaglandin E2 and LTC4 were directly measured in cell-free media using enzyme immunoassay (EIA) kits purchased from Caymen Chemical Co. (Ann Arbor, Mich.). Sample or standard dilutions were made with appropriate media and analyzed in triplicate. Results were obtained by extrapolation from a standard curve prepared in the media and expressed as pg or ng/ml of sample.

In the case of O=S1(=O)CCn2c1nc(-c1ccc(F)cc1)c2-c1ccncc1 [6-(4'-Fluorophenyl)-5-(4-pyridyl)2,3-dihydroimidzo-[2,1-b]thiazole-dioxide], the “effect on CoA-IT activity” value (CoA-IT; at concentrations up to 100 μM) is reported as “no effect”.
With Fc1ccc(-c2nc3n(c2-c2ccncc2)CCS3)cc1 [6-(4'-Fluorophenyl)-5-(4pyridyl)-2,3-dihydroimidzo-[2,1-b]thiazole] the “effect on CoA-IT activity” value (CoA-IT; at concentrations up to 100 μM) was “no effect”.
Cc1cc(C(C)(C)C)c(O)c(C(C)(C)C)c1 [BHT] was tested, and the “effect on CoA-IT activity” value (CoA-IT; at concentrations up to 100 μM) was “no effect”.
CN(C)CCC=C1c2ccccc2COc2ccccc21 [Doxepine] was tested, and the “effect on CoA-IT activity” value (CoA-IT; at concentrations up to 100 μM) was “did not inhibit”.
With CCC(C)(C)c1ccc(Oc2ccc(C(F)(F)F)cc2NC(=O)Nc2cc(C(F)(F)F)cc(C(F)(F)F)c2)c(S(=O)(=O)O)c1 [Example 2, 2-[2-[3-[3,5-Bis(trifluoromethyl)phenyl]ureido]-4-trifluoromethylphenoxy]5-(1,1-dimethylpropyl)benzenesulfonic acid, sodium salt] the “MPO ED50” value [1] was 0.25 mg/ear, the “edema ED50” value [1] was 0.87 mg/ear and the “inhibition in these animal models” value ([1]; mouse ear inflammation models (TPA and AA)) was “positive inhibition”. The “activity in the AA ear model” value [2] was -25, the IC50 (human Monocytes; LTC4 release, A23187, read-out: LTC4 (as an IC50)) was 1 µM and the IC50 (human Monocytes; PGE2 release, A23187, read-out: PGE2 (as an IC50)) was > 10 µM.
CCC(C)(C)c1ccc(Oc2ccc(C(F)(F)F)cc2NC(=O)Nc2ccc(Cl)c(C(F)(F)F)c2)c(S(=O)(=O)O)c1 [Example 3, 2-[2-[3-(4-Chloro-3-trifluoromethylphenyl)ureido]-4-trifluoromethylphenoxy]-5-(1,1-dimethylpropyl)benzenesulfonic acid, sodium salt] was tested, and the “MPO ED50” value [1] was 0.36 mg/ear, the “edema ED50” value [1] was 0.32 mg/ear and the “activity in the AA ear model” value [2] was -22.
For CC(C(=O)O)c1ccc2cc(OCc3ccc4ccccc4n3)ccc2c1 (centres unmarked) [WY 50,295], the “TPA % change in edema” value [1] was -18%, the “change in MPO for TPA model” value [1] was -36 and the “AA % change in edema” value [2] was -50%. The “change in MPO for AA” value [2] was -90.
With COc1cccc2c1cc([N+](=O)[O-])c1c(C(=O)O)cc3c(c12)OCO3 [aristolochic acid] the “effect on CoA-IT activity” value (CoA-IT; at concentrations up to 500 μM) was “no effect”.
For C[C@@H]1C[C@H]2[C@@H]3CCC4=CC(=O)C=C[C@]4(C)[C@@]3(F)[C@@H](O)C[C@]2(C)[C@@]1(O)C(=O)CO [dexamethasone], the “TPA % change in edema” value [1] was -50%, the “change in MPO for TPA model” value [1] was -54 and the “AA % change in edema” value [2] was -10%. For the same compound, the “change in MPO for AA” value [2] was 0.
For COc1ccc2c(c1)c(CC(=O)O)c(C)n2C(=O)c1ccc(Cl)cc1 [indomethicin], the “effect on CoA-IT activity” value (CoA-IT; at concentrations up to 100 μM) was “no effect”.
In the case of COc1ccc2cc([C@H](C)C(=O)O)ccc2c1 [naproxen], the “effect on CoA-IT activity” value (CoA-IT; at concentrations up to 100 μM) is reported as “no effect”.
For CCN(CC)CCCC(C)Nc1c2ccc(Cl)cc2nc2ccc(OC)cc12 (centres unmarked) [quinacrine], the “effect on CoA-IT activity” value (CoA-IT; at concentrations up to 500 μM) was “no effect”.
In the case of CC(=O)O[C@H]1C[C@@H]2[C@@]3(C)CCCC(C)(C)[C@@H]3CC[C@@]2(C)[C@@H]2CC=C(C=O)[C@H](C=O)[C@@]12C [scalaradial], the “TPA % change in edema” value [1] is reported as -46%, the “change in MPO for TPA model” value [1] is reported as -65 and the “AA % change in edema” value [2] is reported as -11%. For the same compound, the “change in MPO for AA” value [2] was -33.
